Reference: ChEMBL document CHEMBL5291721, “A preclinical secondary pharmacology resource illuminates target-adverse drug reaction associations of marketed drugs” (Nat Commun, 2023)

Experiments:
Adenosine receptor A2a = Adenosine receptor A2a (Homo sapiens, UniProt P29274)
[1] = biological target: T1, Alpha-2A adrenergic receptor (Homo sapiens, UniProt P08913); format: functional, cell-based
T1 sequence (P08913 whole entry): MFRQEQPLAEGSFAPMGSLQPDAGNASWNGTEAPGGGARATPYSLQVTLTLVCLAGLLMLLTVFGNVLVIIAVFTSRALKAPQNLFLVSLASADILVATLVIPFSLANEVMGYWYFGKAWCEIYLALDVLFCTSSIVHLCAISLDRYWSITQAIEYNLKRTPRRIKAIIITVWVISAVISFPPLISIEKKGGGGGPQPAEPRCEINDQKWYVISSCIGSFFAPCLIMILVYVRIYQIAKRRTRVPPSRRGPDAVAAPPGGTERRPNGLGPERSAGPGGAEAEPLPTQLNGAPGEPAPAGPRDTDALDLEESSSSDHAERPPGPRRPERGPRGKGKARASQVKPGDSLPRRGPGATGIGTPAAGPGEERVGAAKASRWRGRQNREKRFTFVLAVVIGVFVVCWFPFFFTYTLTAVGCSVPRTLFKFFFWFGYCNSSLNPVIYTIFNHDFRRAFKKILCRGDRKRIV

[2] = biological target: Neuronal acetylcholine receptor subunit alpha-4 (Homo sapiens, UniProt P43681)
Histamine H2 receptor = Histamine H2 receptor (Homo sapiens, UniProt P25021); format: functional, cell-based
[3] = biological target: T2, 5-hydroxytryptamine receptor 2C (Homo sapiens, UniProt P28335)
T2 sequence (P28335 whole entry): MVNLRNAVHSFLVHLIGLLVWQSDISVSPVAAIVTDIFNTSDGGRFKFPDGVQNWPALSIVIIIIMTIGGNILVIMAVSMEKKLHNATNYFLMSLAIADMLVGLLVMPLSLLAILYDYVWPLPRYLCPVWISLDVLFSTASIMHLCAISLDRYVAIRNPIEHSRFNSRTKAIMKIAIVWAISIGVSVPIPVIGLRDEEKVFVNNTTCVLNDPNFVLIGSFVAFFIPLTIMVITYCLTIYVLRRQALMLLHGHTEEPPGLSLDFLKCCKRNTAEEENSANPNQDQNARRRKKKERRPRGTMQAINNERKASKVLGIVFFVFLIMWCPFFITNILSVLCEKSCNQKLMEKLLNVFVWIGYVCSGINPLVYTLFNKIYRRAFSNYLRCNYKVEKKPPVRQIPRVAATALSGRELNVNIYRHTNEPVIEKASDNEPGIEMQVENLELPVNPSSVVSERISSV

[4] = biological target: T3, 5-hydroxytryptamine receptor 3A (Homo sapiens, UniProt P46098); format: functional
T3 sequence (P46098 whole entry): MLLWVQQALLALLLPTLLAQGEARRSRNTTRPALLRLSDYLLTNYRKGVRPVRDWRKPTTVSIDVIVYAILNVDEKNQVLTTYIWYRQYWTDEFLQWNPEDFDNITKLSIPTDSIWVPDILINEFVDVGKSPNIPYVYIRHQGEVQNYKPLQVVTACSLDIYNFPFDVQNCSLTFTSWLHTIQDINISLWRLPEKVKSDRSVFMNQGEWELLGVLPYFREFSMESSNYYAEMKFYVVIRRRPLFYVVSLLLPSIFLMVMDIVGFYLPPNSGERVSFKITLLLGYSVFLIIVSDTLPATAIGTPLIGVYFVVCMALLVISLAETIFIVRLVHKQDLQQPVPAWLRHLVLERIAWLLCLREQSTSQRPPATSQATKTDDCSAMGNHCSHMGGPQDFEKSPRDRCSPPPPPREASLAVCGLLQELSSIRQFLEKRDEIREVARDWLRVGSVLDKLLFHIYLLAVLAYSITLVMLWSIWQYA

[5] = biological target: T4, Prostaglandin G/H synthase 1 (Rattus norvegicus, UniProt Q63921); format: functional
T4 sequence (Q63921 whole entry): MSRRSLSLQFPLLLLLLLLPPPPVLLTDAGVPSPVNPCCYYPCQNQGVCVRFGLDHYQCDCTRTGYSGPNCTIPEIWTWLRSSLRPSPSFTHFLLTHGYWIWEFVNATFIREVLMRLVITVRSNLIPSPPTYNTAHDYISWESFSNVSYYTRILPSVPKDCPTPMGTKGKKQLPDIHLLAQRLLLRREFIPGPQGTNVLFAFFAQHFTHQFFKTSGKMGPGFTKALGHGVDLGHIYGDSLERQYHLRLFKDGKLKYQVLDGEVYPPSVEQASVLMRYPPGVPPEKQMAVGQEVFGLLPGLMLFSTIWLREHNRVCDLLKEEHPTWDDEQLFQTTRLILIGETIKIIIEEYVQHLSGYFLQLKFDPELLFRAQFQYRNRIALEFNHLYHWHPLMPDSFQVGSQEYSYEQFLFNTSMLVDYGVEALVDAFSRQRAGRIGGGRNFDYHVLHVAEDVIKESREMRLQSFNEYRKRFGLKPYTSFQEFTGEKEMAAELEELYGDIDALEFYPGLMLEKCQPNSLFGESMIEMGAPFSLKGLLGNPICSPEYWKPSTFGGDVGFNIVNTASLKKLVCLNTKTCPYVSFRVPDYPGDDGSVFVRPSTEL

Thromboxane A2 receptor = biological target: T5, Thromboxane A2 receptor (Homo sapiens, UniProt P21731)
T5 sequence (P21731 whole entry): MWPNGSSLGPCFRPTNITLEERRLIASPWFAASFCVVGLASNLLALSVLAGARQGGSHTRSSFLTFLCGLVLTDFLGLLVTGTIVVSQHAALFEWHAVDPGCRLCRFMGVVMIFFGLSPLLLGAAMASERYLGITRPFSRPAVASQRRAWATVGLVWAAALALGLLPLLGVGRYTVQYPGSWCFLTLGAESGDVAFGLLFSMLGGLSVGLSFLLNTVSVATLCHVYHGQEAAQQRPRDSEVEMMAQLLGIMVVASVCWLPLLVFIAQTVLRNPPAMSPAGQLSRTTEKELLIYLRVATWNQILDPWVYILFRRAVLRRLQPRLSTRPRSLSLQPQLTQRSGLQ

[6] = biological target: Sodium-dependent dopamine transporter (Homo sapiens, UniProt Q01959)
D(3) dopamine receptor = D(3) dopamine receptor (Homo sapiens, UniProt P35462)
Also: assay procedure not described here.

Neuronal acetylcholine receptor subunit alpha-4, sequence (P43681 whole entry): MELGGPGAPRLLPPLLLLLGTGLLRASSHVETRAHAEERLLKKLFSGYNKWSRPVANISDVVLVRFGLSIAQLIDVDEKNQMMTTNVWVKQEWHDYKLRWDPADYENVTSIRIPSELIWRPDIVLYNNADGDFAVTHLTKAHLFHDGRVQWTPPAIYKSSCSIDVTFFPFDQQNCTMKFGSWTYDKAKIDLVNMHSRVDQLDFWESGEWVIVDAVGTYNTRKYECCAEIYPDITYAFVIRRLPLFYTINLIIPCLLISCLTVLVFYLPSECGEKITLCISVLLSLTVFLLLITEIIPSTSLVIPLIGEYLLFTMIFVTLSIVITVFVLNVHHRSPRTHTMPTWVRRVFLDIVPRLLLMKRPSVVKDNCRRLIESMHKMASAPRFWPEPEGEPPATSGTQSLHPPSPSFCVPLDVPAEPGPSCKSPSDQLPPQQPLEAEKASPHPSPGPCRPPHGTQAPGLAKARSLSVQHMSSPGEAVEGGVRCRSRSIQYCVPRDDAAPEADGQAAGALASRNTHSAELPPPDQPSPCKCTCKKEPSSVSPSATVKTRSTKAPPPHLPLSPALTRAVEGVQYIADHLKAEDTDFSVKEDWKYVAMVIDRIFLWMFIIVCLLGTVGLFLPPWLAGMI
Histamine H2 receptor, sequence (P25021 whole entry): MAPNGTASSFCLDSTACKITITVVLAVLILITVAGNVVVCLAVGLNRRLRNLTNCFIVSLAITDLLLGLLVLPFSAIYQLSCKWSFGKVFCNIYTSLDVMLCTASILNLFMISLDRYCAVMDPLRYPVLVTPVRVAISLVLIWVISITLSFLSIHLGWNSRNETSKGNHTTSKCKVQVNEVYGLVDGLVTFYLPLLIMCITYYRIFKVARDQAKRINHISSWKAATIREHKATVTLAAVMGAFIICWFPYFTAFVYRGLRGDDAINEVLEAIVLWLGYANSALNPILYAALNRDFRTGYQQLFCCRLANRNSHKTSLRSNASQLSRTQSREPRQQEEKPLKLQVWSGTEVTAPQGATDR
Adenosine receptor A2a, sequence (P29274 whole entry): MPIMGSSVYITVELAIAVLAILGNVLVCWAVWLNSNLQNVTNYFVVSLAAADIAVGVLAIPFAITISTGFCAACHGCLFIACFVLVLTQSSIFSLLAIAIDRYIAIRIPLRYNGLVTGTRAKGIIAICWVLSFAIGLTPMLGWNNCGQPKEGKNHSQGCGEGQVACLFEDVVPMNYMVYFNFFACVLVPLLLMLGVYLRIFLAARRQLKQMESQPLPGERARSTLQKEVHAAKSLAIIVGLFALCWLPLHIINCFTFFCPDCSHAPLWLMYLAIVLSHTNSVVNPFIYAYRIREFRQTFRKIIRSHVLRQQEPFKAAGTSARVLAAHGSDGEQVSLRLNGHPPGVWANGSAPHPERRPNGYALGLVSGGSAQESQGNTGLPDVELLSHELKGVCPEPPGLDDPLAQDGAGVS
D(3) dopamine receptor, sequence (P35462 whole entry): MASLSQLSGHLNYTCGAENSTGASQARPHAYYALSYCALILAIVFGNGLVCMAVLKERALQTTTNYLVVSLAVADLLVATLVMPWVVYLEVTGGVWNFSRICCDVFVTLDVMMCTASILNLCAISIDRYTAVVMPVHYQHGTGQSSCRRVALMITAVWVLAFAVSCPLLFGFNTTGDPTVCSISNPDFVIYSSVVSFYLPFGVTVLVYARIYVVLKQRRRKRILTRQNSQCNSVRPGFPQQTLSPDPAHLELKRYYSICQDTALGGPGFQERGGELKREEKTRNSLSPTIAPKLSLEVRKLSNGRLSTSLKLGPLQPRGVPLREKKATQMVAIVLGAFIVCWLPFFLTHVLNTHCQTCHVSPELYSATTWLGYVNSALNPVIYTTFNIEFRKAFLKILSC
Sodium-dependent dopamine transporter, sequence (Q01959 whole entry): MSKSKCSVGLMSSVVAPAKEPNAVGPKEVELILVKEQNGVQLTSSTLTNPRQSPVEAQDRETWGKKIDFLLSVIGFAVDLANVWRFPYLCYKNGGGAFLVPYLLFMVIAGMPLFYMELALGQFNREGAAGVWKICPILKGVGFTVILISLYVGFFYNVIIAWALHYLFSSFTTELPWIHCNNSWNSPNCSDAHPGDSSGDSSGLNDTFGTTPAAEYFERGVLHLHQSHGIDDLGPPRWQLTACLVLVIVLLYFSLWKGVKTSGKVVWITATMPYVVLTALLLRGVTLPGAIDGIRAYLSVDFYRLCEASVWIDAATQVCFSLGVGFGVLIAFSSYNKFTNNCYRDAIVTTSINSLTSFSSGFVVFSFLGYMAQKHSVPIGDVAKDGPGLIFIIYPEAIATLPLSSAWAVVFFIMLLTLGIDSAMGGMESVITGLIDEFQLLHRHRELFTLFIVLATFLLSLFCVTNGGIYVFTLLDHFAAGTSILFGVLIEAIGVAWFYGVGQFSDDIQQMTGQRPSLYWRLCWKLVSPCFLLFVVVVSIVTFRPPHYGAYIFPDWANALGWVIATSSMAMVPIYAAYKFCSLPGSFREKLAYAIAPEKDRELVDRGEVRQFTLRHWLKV

| SMILES | AC50 (Adenosine receptor A2a) [µM] | AC50 [1] [µM] | AC50 [2] [µM] | AC50 (Histamine H2 receptor) [µM] | AC50 [3] [µM] | AC50 [4] [µM] | AC50 [5] [µM] | AC50 (Thromboxane A2 receptor) [µM] | AC50 [6] [µM] | AC50 (D(3) dopamine receptor) [µM] |
| --- | --- | --- | --- | --- | --- | --- | --- | --- | --- | --- |
| CCCCC1C(=O)N(c2ccccc2)N(c2ccccc2)C1=O [PHENYLBUTAZONE] | > 30 | > 10 | > 30 | > 10 | > 30 | > 30 | > 10 | > 30 | > 30 | > 30 |
| [H]/N=C(/N)N/C(=N/[H])NCCc1ccccc1 [PHENFORMIN] | > 30 | > 10 | > 10 | > 30 | > 30 | > 30 | > 30 | > 30 | 25.2 | > 30 |
| CC[C@@H]([C@H](C)O)n1ncn(-c2ccc(N3CCN(c4ccc(OC[C@@H]5CO[C@@](Cn6cncn6)(c6ccc(F)cc6F)C5)cc4)CC3)cc2)c1=O [POSACONAZOLE] |  |  |  |  |  |  | > 30 |  | > 30 | > 30 |
| CCC(C)C1(CC)C(=O)NC(=O)NC1=O (centres undefined) [BUTABARBITAL] | > 30 | > 30 | > 30 | > 30 |  |  | > 30 |  | > 30 |  |
| Oc1ccc2c(c1)CC[C@H](c1ccccc1)[C@@H]2c1ccc(OCCN2CCCC2)cc1 [LASOFOXIFENE] | > 30 | 10 | > 30 | > 30 | 5.3 | > 30 | 5 |  | 0.117 | 2.2 |
| COc1cc(N)c(Cl)cc1C(=O)NC1CCN(Cc2ccccc2)CC1 [CLEBOPRIDE] | > 30 | > 30 | 24 | > 30 | 13 | 8.6 | 14 | > 30 | 22 |  |
| C[C@]12CC[C@@H]3c4ccc(O)cc4C[C@@H](CCCCCCCCC[S+]([O-])CCCC(F)(F)C(F)(F)F)[C@H]3[C@@H]1CC[C@@H]2O (some centres undefined) [FULVESTRANT] | > 30 | > 30 | > 30 | > 30 | > 30 | > 30 | > 30 |  | > 30 | > 30 |
| OC1(c2ccc(Cl)cc2)c2ccccc2C2=NCCN21 (centres undefined) [MAZINDOL] | > 30 | > 30 | > 30 | > 10 | > 30 | > 30 | > 30 | > 30 |  | > 30 |
| O=C(O)c1cn(C2CC2)c2cc(N3CCNCC3)c(F)cc2c1=O [CIPROFLOXACIN] | > 30 |  |  |  |  |  |  | > 30 |  |  |
| CCOC(=O)c1cncn1[C@H](C)c1ccccc1 [ETOMIDATE] | > 10 | > 10 | > 10 | > 10 | > 30 |  | > 10 | > 10 | > 10 | > 30 |
| CC(C)NCC(O)c1ccc(O)c(O)c1 (centres undefined) [ISOPROTERENOL] | > 30 |  | > 30 | > 10 | > 30 | > 10 | > 30 | > 30 | > 30 | > 30 |
| CC(=O)N[C@@H](CS)C(=O)O [ACETYLCYSTEINE] | > 30 | > 30 | > 30 | > 30 | > 30 | > 30 |  | > 30 | > 30 | > 30 |
| O=[N+]([O-])c1ccc(O)c2ncccc12 [NITROXOLINE] |  | > 30 |  | > 30 | 5.5 | 6.6 |  |  |  | 5.8 |
| C/N=C(\NC)NCc1ccccc1 [BETHANIDINE] | > 30 | > 30 | > 30 | > 30 | > 10 | > 30 | > 30 |  | > 30 | > 30 |
| CN(C)CCCNc1c2ccccc2nc2cccc([N+](=O)[O-])c12 [NITRACRINE] | 17 | > 30 | > 30 |  | 2.7 | > 30 | > 30 | > 30 | > 30 | 9.8 |
| CNCc1ccc(-c2[nH]c3cc(F)cc4c3c2CCNC4=O)cc1 [RUCAPARIB] | > 30 |  | > 30 |  |  |  | > 30 | > 30 | > 30 |  |
| C[C@H](Cc1cc2c(c(C(N)=O)c1)N(CCCO)CC2)NCCOc1ccccc1OCC(F)(F)F [SILODOSIN] |  | > 30 |  |  |  |  |  |  |  |  |
| CCCN[C@H]1CCc2nc(N)sc2C1 [PRAMIPEXOLE] | > 30 |  | > 10 | 0.73 | > 30 | > 30 | > 30 | > 30 | > 30 |  |
| CC(C)COCC(CN(Cc1ccccc1)c1ccccc1)N1CCCC1 (centres undefined) [BEPRIDIL] | > 30 | > 30 |  | > 30 | > 30 | > 30 | > 30 | > 30 | 16.2 | 2.6 |
| Cc1cnc(C(=O)NCCc2ccc(S(=O)(=O)NC(=O)NC3CCCCC3)cc2)cn1 [GLIPIZIDE] | > 30 | > 10 | > 10 | > 10 | > 30 | > 10 |  | > 30 |  |  |
| CCC[C@H](NC(=O)[C@@H]1[C@H]2CCC[C@H]2CN1C(=O)[C@@H](NC(=O)[C@@H](NC(=O)c1cnccn1)C1CCCCC1)C(C)(C)C)C(=O)C(=O)NC1CC1 | > 30 |  | > 10 |  | > 30 | > 30 | > 30 | > 30 | > 10 | > 30 |
| CN1CCN(C2=Nc3ccccc3Oc3ccc(Cl)cc32)CC1 [LOXAPINE] | > 30 |  | > 10 | > 10 | 0.029 | 0.38 | > 30 | > 30 | > 10 | 0.032 |
